Assay results taken from ChEMBL document CHEMBL3085740, “Aziridines from alkenyl-β-D-galactopyranoside derivatives: Stereoselective synthesis and in vitro selective anticancer activity” (Eur J Med Chem, 2013).

Assays:
MRC5 = assay: Cytotoxicity against human MRC5 cells after 48 hrs by MTT assay; format: cell-based; details: MRC5, 48 h
A549 [1] = assay: Cytotoxicity against human A549 cells after 48 hrs by MTT assay; format: functional, cell-based; details: A549, 48 h
A549 [2] = assay: Cytotoxicity against human A549 cells at 300 uM after 48 hrs by MTT assay; format: functional
[3] = Cytotoxicity against human MRC5 cells assessed as cell survival at 10 to 320 uM after 48 hrs by MTT assay; format: cell-based; details: read-out: Survival
UACC-62 [4] = assay: Cytotoxicity against human UACC62 cells assessed as cell viability at 1 mM after 48 hrs by MTT assay; format: functional; details: UACC-62, 48 h, read-out: Activity
[5] = Cytotoxicity against human VH10 cells at 1 mM after 48 hrs by MTT assay; format: cell-based; details: vh10, 48 h, 1000 µM
[6] = Cytotoxicity against human MCF10 cells assessed as cell survival at 264 uM after 48 hrs by MTT assay; format: cell-based; details: read-out: Survival
UACC-62 [7] = assay: Cytotoxicity against human UACC62 cells after 48 hrs by MTT assay; format: functional, cell-based; details: UACC-62, 48 h
MCF10 = assay: Cytotoxicity against human MCF10 cells after 48 hrs by MTT assay; format: cell-based; details: MCF10, 48 h
[8] = Cytotoxicity against human VH10 cells after 48 hrs by MTT assay; format: cell-based; details: VH10, 48 h
MCF7 = assay: Cytotoxicity against human MCF7 cells after 48 hrs by MTT assay; format: functional, cell-based; details: MCF7, 48 h

SMILES | IC50 (MRC5) | IC50 (A549 [1]) | also measured
Cc1ccc(S(=O)(=O)N2C(C)C2CO[C@@H]2O[C@@H]3CO[C@H](c4ccccc4)O[C@@H]3[C@H](O)[C@H]2O)cc1 (stereo partly drawn) | 544 µM | 351 µM | 
CCCCCCCCCCCCCCC(CO[C@@H]1O[C@@H]2CO[C@H](c3ccccc3)O[C@@H]2[C@H](OCc2ccccc2)[C@H]1OCc1ccccc1)(CN1CCN(CCO)CC1)NS(=O)(=O)c1ccc(C)cc1 (stereo partly drawn) | 2 µM | 15 µM | 
CCCCCCCCCCCCNCC(C)(CO[C@@H]1O[C@@H]2CO[C@H](c3ccccc3)O[C@@H]2[C@H](OCc2ccccc2)[C@H]1OCc1ccccc1)NS(=O)(=O)c1ccc(C)cc1 (stereo partly drawn) | 156 µM | 492 µM | 
CCCCCCCCCCCCCCC1(CO[C@@H]2O[C@@H]3CO[C@H](c4ccccc4)O[C@@H]3[C@H](OCc3ccccc3)[C@H]2OCc2ccccc2)CN1S(=O)(=O)c1ccc(C)cc1 (stereo partly drawn) | 1000 µM | 1000 µM | 
CCCCCCCCCC1(CO[C@@H]2O[C@@H]3CO[C@H](c4ccccc4)O[C@@H]3[C@H](OCc3ccccc3)[C@H]2OCc2ccccc2)CN1S(=O)(=O)c1ccc(C)cc1 (stereo partly drawn) | 575 µM | 154 µM | Activity (A549 [2]): 30%; viability at 48 h, up to 320 µM [3]: 90%
CCCC1(CO[C@@H]2O[C@@H]3CO[C@H](c4ccccc4)O[C@@H]3[C@H](OCc3ccccc3)[C@H]2OCc2ccccc2)CN1S(=O)(=O)c1ccc(C)cc1 (stereo partly drawn) | 793 µM | 579 µM | 
Cc1ccc(S(=O)(=O)N2CC2(CO[C@@H]2O[C@@H]3CO[C@H](c4ccccc4)O[C@@H]3[C@H](OCc3ccccc3)[C@H]2OCc2ccccc2)c2ccccc2)cc1 (stereo partly drawn) | 570 µM | 599 µM | 
Cc1ccc(S(=O)(=O)N2C(C)C2CO[C@@H]2O[C@@H]3CO[C@H](c4ccccc4)O[C@@H]3[C@H](OCc3ccccc3)[C@H]2OCc2ccccc2)cc1 (stereo partly drawn) | > 1000 µM | 804 µM | 
CCCCCCCC1C(CO[C@@H]2O[C@@H]3CO[C@H](c4ccccc4)O[C@@H]3[C@H](OCc3ccccc3)[C@H]2O)N1S(=O)(=O)c1ccc(C)cc1 (stereo partly drawn) | > 1000 µM | 235 µM | viability at 48 h, up to 320 µM [3]: 90%
Cc1ccc(S(=O)(=O)N2C(CO[C@@H]3O[C@@H]4CO[C@H](c5ccccc5)O[C@@H]4[C@H](OCc4ccccc4)[C@H]3OCc3ccccc3)C2(C)C)cc1 (stereo partly drawn) | > 1000 µM | > 1000 µM | 
Cc1ccc(S(=O)(=O)N2CC2(C)CO[C@@H]2O[C@@H]3CO[C@H](c4ccccc4)O[C@@H]3[C@H](O)[C@H]2O)cc1 (stereo partly drawn) | 312 µM | 154 µM | 
Cc1ccc(S(=O)(=O)N2C(CO[C@@H]3O[C@@H]4CO[C@H](c5ccccc5)O[C@@H]4[C@H](O)[C@H]3O)C2(C)C)cc1 (stereo partly drawn) | 567 µM | 389 µM | 
Cc1ccc(S(=O)(=O)N2CC2CO[C@@H]2O[C@@H]3CO[C@H](c4ccccc4)O[C@@H]3[C@H](OCc3ccccc3)[C@H]2OCc2ccccc2)cc1 (stereo partly drawn) | 183 µM | 73 µM | viability at 48 h, up to 320 µM [3]: 90%
Cc1ccc(S(=O)(=O)N2CC2(C)CO[C@@H]2O[C@@H]3CO[C@H](c4ccccc4)O[C@@H]3[C@H](OCc3ccccc3)[C@H]2OCc2ccccc2)cc1 (stereo partly drawn) | > 1000 µM | 153 µM | viability at 1000 µM (UACC-62 [4]): 10%; Activity [5]: Non-toxic; viability at 48 h, 264 µM [6]: 80%; Activity (A549 [2]): 30%; viability at 48 h, up to 320 µM [3]: 90%; IC50 (UACC-62 [7]): 196 µM; IC50 (MCF10): 567 µM; IC50 [8]: > 1000 µM; IC50 (MCF7): 12 µM
O=c1[nH]cc(F)c(=O)[nH]1 [FLUOROURACIL] |  |  | IC50 (UACC-62 [7]): 264 µM; IC50 [8]: > 1000 µM
